Literature values, collected in US20050196379A1, “Combination therapies with L-FMAU for the treatment of hepatitis B virus infection” (priority 2002, published 2005).

Key:
[1] = tested on: woodchuck hepatitis B virus (WHV); settings: for drop of viral titers in serum: single drug, previous studies, same time frame (two weeks)
hepatitis B virus = settings: in vivo

Row | Compound | average decrease in CCC DNA ([1]; L-FMAU alone, Peek et al.) [fold] | drop of viral titers in serum [1] | number of infected hepatocytes ([1]; woodchuck model) | effect on viral replication and viral clearance ([1]; woodchuck model of HBV) | activity against hepatitis B virus in duck models (hepatitis B virus)
1 | Cc1cn([C@H]2O[C@@H](CO)[C@H](O)[C@H]2F)c(=O)[nH]c1=O [L-FMAU, 1-(2′-deoxy-2′-fluoro-β-L-arabinofuranosyl)-thymine] | 10 | ~1,000 fold | decrease rapidly the number of infected hepatocytes |  | 
2 | β-2-hydroxymethyl-5-(5-fluorocytosin-1-yl)-1,3-oxathiolane [β-L-FTC] |  | about 56 fold |  | inhibit viral replication but not induce viral clearance | strong activity
